Measurements published in ChEMBL document CHEMBL4190243, “Natural alkaloids as P-gp inhibitors for multidrug resistance reversal in cancer” (Eur J Med Chem, 2017).

Experiments:
Mus musculus = species: Mus musculus; test: Inhibition of P-gp in mouse P388/DOX cells assessed as potentiation of doxorubicin-induced cytotoxicity by measuring fold reduction in doxorubicin IC50; type: cell-based
Homo sapiens [1] = species: Homo sapiens; test: Inhibition of P-gp in human HCT116/VM46 cells assessed as potentiation of vinblastine-induced cytotoxicity by measuring fold reduction in vinblastine IC50; type: cell-based
Homo sapiens [2] = species: Homo sapiens; test: Inhibition of P-gp in human CCRF-CEM/VLB100 cells assessed as potentiation of vinblastine-induced cytotoxicity by measuring fold reduction in vinblastine IC50
Homo sapiens [3] = species: Homo sapiens; test: Inhibition of P-gp in human HCT116/VM46 cells assessed as potentiation of doxorubicin-induced cytotoxicity by measuring fold reduction in doxorubicin IC50; type: cell-based
K562/A02 = test: Inhibition of P-gp in human K562/A02 cells assessed as potentiation of doxorubicin-induced cytotoxicity by measuring fold reduction in doxorubicin IC50; type: cell-based
Homo sapiens [4] = species: Homo sapiens; test: Inhibition of P-gp in human KBV1 cells assessed as potentiation of doxorubicin-induced cytotoxicity by measuring fold reduction in doxorubicin IC50 at 5 uM; type: cell-based
Homo sapiens [5] = species: Homo sapiens; test: Inhibition of P-gp in human KBV1 cells assessed as potentiation of vinblastine-induced cytotoxicity by measuring fold reduction in vinblastine IC50 at 5 uM; type: cell-based
Homo sapiens [6] = species: Homo sapiens; test: Inhibition of P-gp in human KBV1 cells assessed as potentiation of paclitaxel-induced cytotoxicity by measuring fold reduction in paclitaxel IC50 at 5 uM; type: cell-based
Homo sapiens [7] = species: Homo sapiens; test: Inhibition of P-gp in human MCF7/DOX cells assessed as potentiation of doxorubicin-induced cytotoxicity by measuring fold reduction in doxorubicin IC50 at 5 uM; type: cell-based
Homo sapiens [8] = species: Homo sapiens; test: Inhibition of P-gp in human A549/DDP cells assessed as potentiation of doxorubicin-induced cytotoxicity; type: cell-based
Homo sapiens [9] = species: Homo sapiens; test: Inhibition of P-gp in human MCF7/DOX cells assessed as potentiation of mitoxantrone-induced cytotoxicity by measuring fold reduction in mitoxantrone IC50 at 50 uM after 48 hrs by MTT assay; type: cell-based
Homo sapiens [10] = species: Homo sapiens; test: Inhibition of P-gp in human SW620/AD300 cells assessed as potentiation of taxol-induced cytotoxicity by measuring fold reduction in taxol IC50; type: cell-based
Homo sapiens [11] = species: Homo sapiens; test: Inhibition of P-gp in human SW620/AD300 cells assessed as potentiation of doxorubicin-induced cytotoxicity by measuring fold reduction in doxorubicin IC50; type: cell-based
Homo sapiens [12] = species: Homo sapiens; test: Inhibition of P-gp in human MCF7/DOX cells assessed as potentiation of doxorubicin-induced cytotoxicity by measuring doxorubicin ED50; type: cell-based
Homo sapiens [13] = species: Homo sapiens; test: Inhibition of P-gp in human MCF7/ADR cells assessed as potentiation of doxorubicin-induced cytotoxicity by measuring fold reduction in doxorubicin IC50 at 50 uM after 0.5 to 4 hrs by fluorometric method; type: cell-based
[14] = biological target: Multidrug resistance-associated protein 1 (Homo sapiens, UniProt P33527); test: Inhibition of MRP1 in human MCF7/ADR cells assessed as potentiation of mitoxantrone-induced cytotoxicity by measuring fold reduction in mitoxantrone IC50 at 50 uM after 0.5 to 4 hrs by fluorometric method; type: cell-based
Multidrug resistance-associated protein 1, sequence (P33527 whole entry): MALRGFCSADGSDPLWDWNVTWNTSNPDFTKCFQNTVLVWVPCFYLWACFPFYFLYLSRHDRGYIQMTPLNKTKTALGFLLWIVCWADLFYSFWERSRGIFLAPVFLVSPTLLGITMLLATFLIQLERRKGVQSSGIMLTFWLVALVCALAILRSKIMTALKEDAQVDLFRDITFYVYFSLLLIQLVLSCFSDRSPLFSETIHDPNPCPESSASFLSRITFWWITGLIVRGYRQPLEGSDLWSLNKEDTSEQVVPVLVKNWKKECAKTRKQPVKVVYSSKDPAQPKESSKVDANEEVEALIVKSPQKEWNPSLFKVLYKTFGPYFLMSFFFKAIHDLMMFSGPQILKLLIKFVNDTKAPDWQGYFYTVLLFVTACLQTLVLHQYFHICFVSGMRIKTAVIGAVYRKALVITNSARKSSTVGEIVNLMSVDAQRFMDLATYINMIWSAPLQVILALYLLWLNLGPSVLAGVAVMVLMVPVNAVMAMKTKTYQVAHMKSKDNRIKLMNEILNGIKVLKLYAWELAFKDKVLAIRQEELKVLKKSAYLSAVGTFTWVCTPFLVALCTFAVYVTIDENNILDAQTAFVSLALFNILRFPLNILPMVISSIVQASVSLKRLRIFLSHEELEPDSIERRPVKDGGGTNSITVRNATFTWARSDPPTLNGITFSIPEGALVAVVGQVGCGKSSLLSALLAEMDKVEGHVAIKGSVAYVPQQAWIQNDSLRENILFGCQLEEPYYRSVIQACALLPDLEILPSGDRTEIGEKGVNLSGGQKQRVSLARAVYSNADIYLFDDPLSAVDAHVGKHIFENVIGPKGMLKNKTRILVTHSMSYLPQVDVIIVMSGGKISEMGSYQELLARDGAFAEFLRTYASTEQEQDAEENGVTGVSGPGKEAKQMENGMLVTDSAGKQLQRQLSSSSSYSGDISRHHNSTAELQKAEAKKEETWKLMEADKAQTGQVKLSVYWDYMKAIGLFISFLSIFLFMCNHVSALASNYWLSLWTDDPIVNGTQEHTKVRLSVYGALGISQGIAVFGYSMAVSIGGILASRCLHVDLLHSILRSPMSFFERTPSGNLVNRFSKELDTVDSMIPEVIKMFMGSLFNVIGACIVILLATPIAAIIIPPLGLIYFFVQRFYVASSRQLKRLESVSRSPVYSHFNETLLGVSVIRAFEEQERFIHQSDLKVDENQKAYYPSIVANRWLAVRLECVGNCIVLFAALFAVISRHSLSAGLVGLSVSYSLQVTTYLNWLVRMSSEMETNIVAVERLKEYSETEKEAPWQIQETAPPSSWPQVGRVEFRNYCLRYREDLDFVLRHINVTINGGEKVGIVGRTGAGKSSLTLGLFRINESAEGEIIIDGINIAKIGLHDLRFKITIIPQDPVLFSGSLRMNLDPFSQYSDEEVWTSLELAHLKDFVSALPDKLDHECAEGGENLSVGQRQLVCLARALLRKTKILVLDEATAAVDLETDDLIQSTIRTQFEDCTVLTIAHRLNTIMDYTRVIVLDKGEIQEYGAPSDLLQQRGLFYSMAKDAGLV

NCI-H460 = test: Inhibition of P-gp in human NCI-H460 resistant cells assessed as potentiation of doxorubicin-induced cytotoxicity by measuring fold reduction in doxorubicin IC50; type: cell-based
[15] = Inhibition of P-gp in human MCF7/DX1 cells assessed as […] Rh123 accumulation after 30 mins by FACS analysis; type: cell-based; conditions: MCF7/DX1, 0.5 h
[16] = Inhibition of P-gp in human MCF7/DX1 cells assessed as […] [3H]paclitaxel accumulation after 40 mins by scintillation counting method; type: cell-based
Homo sapiens [17] = species: Homo sapiens; test: Inhibition of P-gp in human Caco2 cells assessed as potentiation of doxorubicin-induced cytotoxicity by measuring fold reduction in doxorubicin IC50; type: cell-based
Homo sapiens [18] = species: Homo sapiens; test: Inhibition of P-gp in human CEM/DOX5000 cells assessed as potentiation of doxorubicin-induced cytotoxicity by measuring fold reduction in doxorubicin IC50; type: cell-based
[19] = Cytotoxicity against human KB1 cells; type: functional; conditions: read-out: ED50 (the source's name)
Homo sapiens [20] = species: Homo sapiens; test: Inhibition of P-gp in human KBV1 cells assessed as potentiation of vinblastine-induced cytotoxicity by measuring fold reduction in vinblastine IC50 at 50 uM; type: cell-based

With `COc1ccc(CCn2cc(-c3ccc(OC)c(OC)c3)c3c4cc(OC)c(OC)cc4oc(=O)c32)cc1OC` as the compound, how does the fold change (FC) (Mus musculus) read?
The fold change (FC) was 350.

What about the fold change (FC) (Homo sapiens [1]) of the same compound?
Its fold change (FC) is 35.

And the fold change (FC) (Homo sapiens [2])?
The fold change (FC) was 6.2.

What about the fold change (FC) (Homo sapiens [3]) of the same compound?
The fold change (FC) was 350.

With `CCCCCC(CC(C)=O)n1cnc2c(N)ncnc21` (configuration not stated) as the compound, how does the fold change (FC) (K562/A02) read?
Its fold change (FC) is 1.5 to 2.7.

What does the source list for `CCCC[C@@]12[C@@H]3C[C@H]4[C@H]5[C@H](C)/C(=C6/OC(=O)C(C)=C6OC)O[C@]5(O3)[C@@H]1CCN42`?
fold change (FC) (Homo sapiens [4]): 4 to 5; fold change (FC) (Homo sapiens [5]): 5; fold change (FC) (Homo sapiens [6]): 7

With `O=C(/C=C/C=C/c1ccc2c(c1)OCO2)N1CCCCC1` as the compound, how does the fold change (FC) (Homo sapiens [7]) read?
Its fold change (FC) is 32.

And the fold change (FC) (Homo sapiens [8])?
The fold change (FC) was 14.

What about the fold change (FC) (Homo sapiens [9]) of the same compound?
Its fold change (FC) is 7.

With `C=C/C=C\[C@H](C)[C@H](OC(N)=O)[C@@H](C)[C@H](O)[C@@H](C)C/C(C)=C\[C@H](C)[C@@H](O)[C@@H](C)/C=C\[C@@H](O)C[C@@H]1OC(=O)[C@H](C)[C@@H](O)[C@H]1C` as the compound, how does the fold change (FC) (Homo sapiens [10]) read?
The fold change (FC) was 4.

For `CN1c2ccccc2[C@@]23C[C@H]4C(=O)N5[C@H]6N(C[C@@]7(C)O[C@@H]7C2)c2ccccc2[C@@]6(C)C[C@H]5C(=O)N4[C@H]13`, which fold change (FC) (Homo sapiens [11]) is on record?
The fold change (FC) was 2.

With `CC(/C=C/C#C/C=C/C=C(\C)C(=O)N[C@@H](C)CO)=C\[C@@H](C)[C@@H](O)/C(C)=C/[C@@H](C)CCc1ccccc1` as the compound, how does the ED50 (Homo sapiens [12]) read?
The ED50 was 0.2 nM.

For `COc1cc2c(cc1OC)-c1c(OC)c(OC)cc3c1[C@H](C2)N(C)CC3` [GLAUCINE], which fold change (FC) (Homo sapiens [13]) is on record?
The fold change (FC) was 7.

And the “fold change (FC)” value [14]?
Its value is 22.

And the fold change (FC) (Homo sapiens [7])?
Its fold change (FC) is 7.

With H-KILRGVCKKIMRTFLRRISKDILTGKK-OH as the compound, how does the fold change (FC) (NCI-H460) read?
The fold change (FC) was 5.

With `CCCCC(CC(C)=O)n1cnc2c(N)ncnc21` (configuration not stated) as the compound, how does the fold change (FC) (K562/A02) read?
Its fold change (FC) is 1.5 to 2.7.

With `CCCCCCCCC(CC(=O)CCCCCCC(=O)O)n1cnc2c(N)ncnc21` (configuration not stated) as the compound, how does the fold change (FC) (K562/A02) read?
Its fold change (FC) is 1.5 to 2.7.

With `COc1ccc(/C=C/NC(=O)c2c(-c3cc(OC)c(OC)c(OC)c3)c(-c3cc(OC)c(OC)c(OC)c3)c(C(=O)N/C=C/c3ccc(OC)cc3)n2CCc2ccc(OC)cc2)cc1` as the compound, how does the fold change (FC) (Homo sapiens [1]) read?
Its fold change (FC) is 66.

Which IC50 [15] does the source give for `C=C[C@H]1CN2CC[C@H]1C[C@@H]2[C@@H](OC(=O)CCCCCCCC(=O)O[C@@H](c1ccnc2ccc(OC)cc12)[C@H]1C[C@@H]2CCN1C[C@@H]2C=C)c1ccnc2ccc(OC)cc12` here?
The IC50 was 1700 nM.

What about the IC50 [16] of the same compound?
Its IC50 is 2000 nM.

Which fold change (FC) (Homo sapiens [17]) does the source give for `CN1[C@@H](CC(=O)c2ccccc2)CCC[C@H]1CC(O)c1ccccc1` (some centres not stated) here?
Its fold change (FC) is 3.5.

What about the fold change (FC) (Homo sapiens [18]) of the same compound?
The fold change (FC) was 2.5 to 3.

With `CC(/C=C/C=C\C=C\C=C(/C)C(=O)N[C@@H](C)CO)=C\[C@@H](C)[C@@H](O)/C(C)=C/[C@@H](C)CCc1ccccc1` as the compound, how does the EC50 [19] read?
Its EC50 is 0.03 nM.

Which fold change (FC) (Homo sapiens [20]) does the source give for `COC1=C(C)C(=O)O/C1=C1\O[C@@]23CCCN4CCC[C@@H](O2)[C@H]4[C@H]3[C@@H]1C` here?
Its fold change (FC) is 4.
